# According to US7473688B2, “Indolobenzazepine HCV NS5B inhibitors” (Bristol-Myers Squibb Company, priority 2005, dated 2009):
# Target: T1, HCV NS5B (Hepatitis C virus genotype 1b, UniProt Q9WMX2)
# T1 construct: The protein was expressed with an 18 amino acid C-terminal truncation to enhance the solubility; made in house; host or cells: E. coli BL21 (DE3), pET21a
# Test: HCV NS5B RdRp enzyme assay (preincubation protocol)
# Assay type: biochemical
# Conditions: Table 1, read-out: IC50*
# Protocol: HCV NS5B RdRp cloning, expression, and purification. The cDNA encoding the NS5B protein of HCV, genotype 1b, was cloned into the pET21a expression vector. The protein was expressed with an 18 amino acid C-terminal truncation to enhance the solubility. The E. coli competent cell line BL21 (DE3) was used for expression of the protein. Cultures were grown at 37° C. for ˜4 hours until the cultures reached an optical density of 2.0 at 600 nm. The cultures were cooled to 20° C. and induced with 1 mM IPTG. Fresh ampicillin was added to a final concentration of 50 μg/ml and the cells were grown overnight at 20° C.
# Cell pellets (3L) were lysed for purification to yield 15-24 mgs of purified NS5B. The lysis buffer consisted of 20 mM Tris-HCl, pH 7.4, 500 mM NaCl, 0.5% triton X-100, 1 mM DTT, 1 mM EDTA, 20% glycerol, 0.5 mg/ml lysozyme, 10 mM MgCl2, 15 ug/ml deoxyribonuclease I, and Complete TM protease inhibitor tablets (Roche). After addition of the lysis buffer, frozen cell pellets were resuspended using a tissue homogenizer. To reduce the viscosity of the sample, aliquots of the lysate were sonicated on ice using a microtip attached to a Branson sonicator. The sonicated lysate was centrifuged at 100,000×g for 1 hr at 4° C. and filtered through a 0.2 μm filter unit (Corning).
# The protein was purified using three sequential chromatography steps: Heparin sepharose CL-6B, polyU sepharose 4B, and Hitrap SP sepharose (Pharmacia). The chromatography buffers were identical to the lysis buffer but contained no lysozyme, deoxyribonuclease I, MgCl2 or protease inhibitor and the NaCl concentration of the buffer was adjusted according to the requirements for charging the protein onto the column. Each column was eluted with a NaCl gradient which varied in length from 5-50 column volumes depending on the column type. After the final chromatography step, the resulting purity of the enzyme is >90% based on SDS-PAGE analysis. The enzyme was aliquoted and stored at −80° C.
# Standard HCV NS5B RdRp enzyme assay. HCV RdRp genotype 1b assays were run in a final volume of 60 μl in 96 well plates (Costar 3912). The assay buffer is composed of 20 mM Hepes, pH 7.5, 2.5 mM KCl, 2.5 mM MgCl2, 1 mM DTT, 1.6 U RNAse inhibitor (Promega N2515), 0.1 mg/ml BSA (Promega R3961), and 2% glycerol. All compounds were serially diluted (3-fold) in DMSO and diluted further in water such that the final concentration of DMSO in the assay was 2%. HCV RdRp genotype 1b enzyme was used at a final concentration of 28 nM. A polyA template was used at 6 nM, and a biotinylated oligo-dT12 primer was used at 180 nM final concentration. Template was obtained commercially (Amersham 27-4110). Biotinylated primer was prepared by Sigma Genosys. 3H-UTP was used at 0.6 μCi (0.29 μM total UTP). Reactions were initiated by the addition of enzyme, incubated at 30° C. for 60 min, and stopped by adding […] of 50 mM EDTA containing SPA beads (4 μg/μl, Amersham RPNQ 0007). Plates were read on a Packard Top Count NXT after >1 hr incubation at room temperature.
# Modified HCV NS5B RdRp enzyme assay. A modified enzyme assay was performed essentially as described for the standard enzyme assay except for the following: The biotinylated oligo dT12 primer was precaptured on streptavidin-coated SPA beads by mixing primer and beads in assay buffer and incubating at room temperature for one hour. Unbound primer was removed after centrifugation. The primer-bound beads were resuspended in 20 mM Hepes buffer, pH 7.5 and used in the assay at final concentrations of […] primer and 0.67 μg/μl beads. Order of addition in the assay: Enzyme (14 nM) was added to diluted compound followed by the addition of a mixture of template (0.2 nM), 3H-UTP (0.6 μCi, 0.29 μM), and primer-bound beads, to initiate the reaction; concentrations given are final. Reactions were allowed to proceed for 4 hours at 30° C.
# IC50 values for compounds were determined using seven different [I]. […]
# T1 sequence (Q9WMX2 2420-2992): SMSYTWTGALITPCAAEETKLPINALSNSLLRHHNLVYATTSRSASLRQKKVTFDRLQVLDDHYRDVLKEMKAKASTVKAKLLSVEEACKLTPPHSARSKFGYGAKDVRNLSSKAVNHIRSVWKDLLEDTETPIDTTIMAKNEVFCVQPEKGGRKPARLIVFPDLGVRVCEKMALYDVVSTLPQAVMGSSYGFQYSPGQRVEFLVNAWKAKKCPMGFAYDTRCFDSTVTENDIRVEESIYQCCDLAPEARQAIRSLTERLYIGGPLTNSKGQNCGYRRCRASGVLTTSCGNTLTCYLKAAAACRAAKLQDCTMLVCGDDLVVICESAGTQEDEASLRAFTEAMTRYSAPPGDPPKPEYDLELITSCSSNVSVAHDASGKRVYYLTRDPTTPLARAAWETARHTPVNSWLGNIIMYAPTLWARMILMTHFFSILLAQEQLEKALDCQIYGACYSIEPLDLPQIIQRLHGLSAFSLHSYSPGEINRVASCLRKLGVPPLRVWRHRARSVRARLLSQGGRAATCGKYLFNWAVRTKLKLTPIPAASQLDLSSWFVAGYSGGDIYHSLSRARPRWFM
row,Compound,IC50
1,COC(=O)c1ccc2c(C3CCCCC3)c3n(c2c1)CC(C(=O)N1CCC(N2CC[C@H](F)C2)CC1)=Cc1ccccc1-3,> 1000 nM

# Same assay, conditions: Table 1a, read-out: IC50*
row,Compound,IC50
1,COC(=O)c1ccc2c(C3CCCCC3)c3n(c2c1)CC(NC(=O)OC(C)(C)C)Cc1ccccc1-3 (stereo not shown),10 to 1000 nM
2,C=CCNC(=O)N1CCN(C(=O)C2=Cc3ccccc3-c3c(C4CCCCC4)c4ccc(C(=O)NS(=O)(=O)N(C)C)cc4n3C2)CC1,10 to 1000 nM
3,O=C(NC[C@@H]1CCCO1)c1ccc2c(C3CCCCC3)c3n(c2c1)CC(C(=O)N1CCC(N2CCOCC2)CC1)=Cc1ccccc1-3,10 to 1000 nM
4,COc1ccc2c(c1)CC(C(=O)N(C)CC(=O)N(C)C)Cn1c-2c(C2CCCCC2)c2ccc(C(=O)NS(=O)(=O)N(C)C)cc21 (stereo not shown),10 to 1000 nM
5,CNC(=O)CNC(=O)C1=Cc2cc(OC)ccc2-c2c(C3CCCCC3)c3ccc(C(=O)O)cc3n2C1,10 to 1000 nM
6,CN(C)C(=O)CNC(=O)c1ccc2c(C3CCCCC3)c3n(c2c1)CC(C(=O)N1CCC(N2CCOCC2)CC1)=Cc1ccccc1-3,10 to 1000 nM
7,CNC(=O)CNC(=O)C1=Cc2cc(OC)ccc2-c2c(C3CCCCC3)c3ccc(C(=O)NS(=O)(=O)N(C)C)cc3n2C1,10 to 1000 nM
8,O=C(NCCc1nc2ccccc2[nH]1)c1ccc2c(C3CCCCC3)c3n(c2c1)CC(C(=O)N1CCC(N2CCOCC2)CC1)=Cc1ccccc1-3,10 to 1000 nM
9,COC(=O)c1ccc2c(C3CCCCC3)c3n(c2c1)CC(NC(=O)NC1CCN(C(=O)C(F)(F)F)CC1)Cc1ccccc1-3 (stereo not shown),> 1000 nM
10,CN1CCN(C(=O)C2=Cc3ccccc3-c3c(C4CCCCC4)c4ccc(C(=O)NS(=O)(=O)N(C)C)cc4n3C2)CC1=O,10 to 1000 nM
11,CN(C)C(=O)CN(C)C(=O)C1=Cc2ccccc2-c2c(C3CCCCC3)c3ccc(C(=O)O)cc3n2C1,10 to 1000 nM
12,COc1ccc2c(c1)C=C(C(=O)N(C)CC(=O)O)Cn1c-2c(C2CCCCC2)c2ccc(C(=O)O)cc21,10 to 1000 nM
13,COc1ccc2c(c1)C=C(C(=O)N(C)CC(=O)N1CCOCC1)Cn1c-2c(C2CCCCC2)c2ccc(C(=O)O)cc21,10 to 1000 nM
14,CN(C)C(=O)CN(C)C(=O)C1=Cc2ccccc2-c2c(C3CCCCC3)c3ccc(C(=O)NS(=O)(=O)N(C)C)cc3n2C1,10 to 1000 nM
15,COc1ccc2c(c1)C=C(C(=O)N1CCC[C@@H](OC(C)=O)C1)Cn1c-2c(C2CCCCC2)c2ccc(C(=O)NS(=O)(=O)N(C)C)cc21,10 to 1000 nM
16,CN(C)C(=O)C1CCN(C(=O)C2=Cc3ccccc3-c3c(C4CCCCC4)c4ccc(C(=O)NS(=O)(=O)N(C)C)cc4n3C2)CC1,10 to 1000 nM
17,COc1ccc2c(c1)C=C(C(=O)N(C)CC(=O)N1CCOCC1)Cn1c-2c(C2CCCCC2)c2ccc(C(=O)NS(=O)(=O)N(C)C)cc21,10 to 1000 nM
18,COc1ccc2c(c1)C=C(C(=O)N1C[C@@H](C)O[C@@H](C)C1)Cn1c-2c(C2CCCCC2)c2ccc(C(=O)NS(=O)(=O)N3CCN(C)CC3)cc21,10 to 1000 nM
19,COc1ccc2c(c1)C=C(C(=O)N1CCN(C)C(=O)C1)Cn1c-2c(C2CCCCC2)c2ccc(C(=O)NS(=O)(=O)N(C)C)cc21,10 to 1000 nM
20,CCN(CC)C(=O)CN(C)C(=O)C1=Cc2cc(OC)ccc2-c2c(C3CCCCC3)c3ccc(C(=O)NS(=O)(=O)N(C)C)cc3n2C1,10 to 1000 nM
21,COCCNC(=O)CN(C)C(=O)C1=Cc2cc(OC)ccc2-c2c(C3CCCCC3)c3ccc(C(=O)NS(=O)(=O)N(C)C)cc3n2C1,10 to 1000 nM
22,COC(=O)c1ccc2c(C3CCCCC3)c3n(c2c1)CC(NC(=O)C1CCCC(OC)C1)Cc1ccccc1-3 (stereo not shown),> 1000 nM
23,COc1ccc2c(c1)CC(C(=O)N(C)CC1CCCO1)Cn1c-2c(C2CCCCC2)c2ccc(C(=O)NS(=O)(=O)N(C)C)cc21 (stereo not shown),10 to 1000 nM
24,COc1ccc2c(c1)CC(C(=O)N(C)CC1CCCO1)Cn1c-2c(C2CCCCC2)c2ccc(C(=O)O)cc21 (stereo not shown),10 to 1000 nM
25,COC(=O)c1ccc2c(C3CCCCC3)c3n(c2c1)CC(C(=O)NCC1CCCO1)Cc1cc(OC)ccc1-3 (stereo not shown),> 1000 nM
26,COc1ccc2c(c1)C=C(C(=O)N1CCC[C@H](OC(C)=O)C1)Cn1c-2c(C2CCCCC2)c2ccc(C(=O)NS(=O)(=O)N(C)C)cc21,10 to 1000 nM
27,COc1ccc2c(c1)C=C(C(=O)N1CCC(C(=O)N(C)C)CC1)Cn1c-2c(C2CCCCC2)c2ccc(C(=O)NS(=O)(=O)N(C)C)cc21,10 to 1000 nM
